Where a name gives a salt, the structure may show the parent alone.

The target of the test is Apo(a) and ApoB protein assembly (Homo sapiens (Human), UniProt P08519). Kind of test: Test for activity of compounds in inhibiting Lp(a) assembly (double antibody ELISA). As to conditions: plasma from human transgenic hApo(a) and hApoB mice; 37° C., 2 h; ELISA absorbance at 450 nm. Format: biochemical. The procedure: The disclosure used a double antibody ELISA method to measure the efficiency of Apo(a) and ApoB protein assembly. The antibodies were ApoB-Capture antibody (Mabtech) and Apo(a)-Detector antibody (Abcam); the test samples were plasma from human transgenic hApo(a) and hApoB mice and were diluted 500-fold before use.
Sequence of Apo(a) and ApoB protein assembly (P08519 20-2040): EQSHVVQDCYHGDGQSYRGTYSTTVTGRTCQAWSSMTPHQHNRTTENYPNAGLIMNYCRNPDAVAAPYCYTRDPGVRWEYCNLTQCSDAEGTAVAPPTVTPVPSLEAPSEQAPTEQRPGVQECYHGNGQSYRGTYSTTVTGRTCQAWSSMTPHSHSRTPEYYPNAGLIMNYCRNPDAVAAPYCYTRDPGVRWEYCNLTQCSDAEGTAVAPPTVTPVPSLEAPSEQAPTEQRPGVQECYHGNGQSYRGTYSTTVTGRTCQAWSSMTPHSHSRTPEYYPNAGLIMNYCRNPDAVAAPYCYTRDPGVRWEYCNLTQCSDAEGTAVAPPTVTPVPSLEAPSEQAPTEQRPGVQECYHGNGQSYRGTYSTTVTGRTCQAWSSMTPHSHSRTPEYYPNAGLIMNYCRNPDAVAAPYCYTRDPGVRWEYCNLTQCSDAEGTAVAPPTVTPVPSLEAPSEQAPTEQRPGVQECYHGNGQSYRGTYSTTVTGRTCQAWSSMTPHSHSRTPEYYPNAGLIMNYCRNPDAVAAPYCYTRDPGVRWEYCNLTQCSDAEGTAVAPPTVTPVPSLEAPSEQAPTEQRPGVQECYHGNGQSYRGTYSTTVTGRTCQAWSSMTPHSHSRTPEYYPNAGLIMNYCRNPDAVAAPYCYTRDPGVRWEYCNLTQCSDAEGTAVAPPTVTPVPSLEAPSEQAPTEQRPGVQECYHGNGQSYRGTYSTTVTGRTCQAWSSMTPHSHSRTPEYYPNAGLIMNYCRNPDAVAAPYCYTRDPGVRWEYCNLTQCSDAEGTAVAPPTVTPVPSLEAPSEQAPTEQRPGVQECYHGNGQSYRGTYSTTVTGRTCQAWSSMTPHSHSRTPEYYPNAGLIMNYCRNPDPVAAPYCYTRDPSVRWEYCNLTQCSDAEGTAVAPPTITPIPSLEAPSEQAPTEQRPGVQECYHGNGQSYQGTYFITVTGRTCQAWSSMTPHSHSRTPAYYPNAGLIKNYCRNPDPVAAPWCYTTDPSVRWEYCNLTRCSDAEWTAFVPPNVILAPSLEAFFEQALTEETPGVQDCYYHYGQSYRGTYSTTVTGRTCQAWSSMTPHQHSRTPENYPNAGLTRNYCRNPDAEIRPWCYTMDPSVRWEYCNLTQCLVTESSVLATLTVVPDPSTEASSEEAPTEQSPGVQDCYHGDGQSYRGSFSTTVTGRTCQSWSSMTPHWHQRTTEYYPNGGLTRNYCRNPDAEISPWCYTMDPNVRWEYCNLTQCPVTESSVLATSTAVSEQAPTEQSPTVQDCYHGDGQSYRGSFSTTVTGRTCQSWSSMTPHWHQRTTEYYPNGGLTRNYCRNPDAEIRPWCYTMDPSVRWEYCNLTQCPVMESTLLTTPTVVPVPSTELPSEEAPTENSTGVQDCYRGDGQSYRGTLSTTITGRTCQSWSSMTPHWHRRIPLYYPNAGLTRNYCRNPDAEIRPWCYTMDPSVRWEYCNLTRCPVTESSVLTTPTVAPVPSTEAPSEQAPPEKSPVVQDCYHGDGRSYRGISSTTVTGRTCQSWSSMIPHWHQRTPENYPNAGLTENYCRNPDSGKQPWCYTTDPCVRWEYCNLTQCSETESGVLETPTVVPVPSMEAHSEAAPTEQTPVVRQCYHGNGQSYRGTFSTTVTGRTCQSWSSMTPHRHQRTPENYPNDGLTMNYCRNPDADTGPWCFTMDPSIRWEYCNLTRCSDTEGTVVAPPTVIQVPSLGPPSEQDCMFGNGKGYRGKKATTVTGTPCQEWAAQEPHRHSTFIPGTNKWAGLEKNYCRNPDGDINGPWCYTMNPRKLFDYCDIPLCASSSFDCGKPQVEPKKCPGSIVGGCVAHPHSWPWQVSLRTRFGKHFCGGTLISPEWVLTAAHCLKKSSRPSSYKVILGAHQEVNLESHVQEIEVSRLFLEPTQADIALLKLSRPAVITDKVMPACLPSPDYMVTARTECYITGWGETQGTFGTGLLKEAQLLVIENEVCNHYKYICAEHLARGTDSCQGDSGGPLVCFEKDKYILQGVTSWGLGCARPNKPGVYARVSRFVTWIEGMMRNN
Experimental steps: Equal amounts of Apo(a) and ApoB serum were mixed with a serially diluted test compound (highest concentration at 100 nM, serially diluted 3-fold). The mixture was incubated in a 37° C. incubator for 2 h. The reaction was then terminated by adding 6-aminocaproic acid (EACA, purchased from Sigma) to a final concentration of 150 mM. The post-reaction solution was then added to an ELISA plate pre-coated with ApoB-Capture antibody, and the plate was incubated at room temperature for 2 h. Then the plate was washed 4 times with wash buffer; biotinylated Apo(a)-Detector antibody was added, and the plate was incubated at room temperature for 1 h. The plate was washed, and the chromogenic substrate 3,3′,5,5′-tetramethylbenzidine (TMB, purchased from Abcam) solution was added. After the plate was incubated at room temperature for 15 min, a reaction stop solution was added. Immediately after the solution was mixed well, the absorbance at 450 nm was measured using a microplate reader. Finally, data analysis and IC50 calculation were performed using GraphPad Prism 9 software.
The 0% inhibition rate for Apo(a) and ApoB protein assembly corresponds to the OD value where the compound concentration was 0 (1% DMSO); the 100% inhibition rate for Apo(a) and ApoB protein assembly corresponds to the OD value where only ApoB protein solution (a dilution of plasma from hApoB mice) was added.
On the technique in general: In an ELISA, binding on a coated surface is turned into a signal by an enzyme label.
In turn, `O=C(O)[C@@H](Cc1cc(F)cc(CN(Cc2cc(F)cc(C[C@H](C(=O)O)[C@H]3CCNC3)c2)Cc2cc(F)cc(C[C@H](C(=O)O)[C@H]3CCNC3)c2)c1)[C@H]1CCNC1` [Compound 1, (2S)-3-(3-{[Bis({3-[(2S)-2-carboxy-2-[(3R)-pyrrolidin-3-yl]ethyl]-5-fluorophenyl}methyl)amino]methyl}-5-fluorophenyl)-2-[(3R)-pyrrolidin-3-yl]propanoic acid] returned an IC50 of 0.75 nM.

In turn, `O=C(O)[C@@H](Cc1cccc(CNCCN(Cc2cccc(C[C@H](C(=O)O)[C@H]3CCNC3)c2)Cc2cccc(C[C@H](C(=O)O)[C@H]3CCNC3)c2)c1)[C@H]1CCNC1` [Compound 5, (2S)-3-(3-{[({3-[(2S)-2-Carboxy-2-[(3R)-pyrrolidin-3-yl]ethyl]phenyl}methyl)({2-[({3-[(2S)-2-carboxy-2-[(3R)-pyrrolidin-3-yl]ethyl]phenyl}methyl)amino]ethyl})amino]methyl}phenyl)-2-[(3R)-pyrrolidin-3-yl]propanoic acid] came in with an IC50 of 0.78 nM.

`O=C(O)[C@@H](Cc1cccc(CN(Cc2cccc(C[C@H](C(=O)O)C3CCNCC3)c2)Cc2cccc(C[C@H](C(=O)O)C3CCNCC3)c2)c1)C1CCNCC1` [Compound 2, (2S)-3-(3-{[Bis({3-[(2S)-2-carboxy-2-(piperidin-4-yl)ethyl]phenyl}methyl)amino]methyl}phenyl)-2-(piperidin-4-yl)propanoic acid] registered an IC50 of 1.7 nM.

With `O=C(O)C(F)(Cc1cccc(CN(Cc2cccc(CC(F)(C(=O)O)[C@H]3CCNC3)c2)Cc2cccc(CC(F)(C(=O)O)[C@H]3CCNC3)c2)c1)[C@H]1CCNC1` (stereo partly drawn) [Compound 3, 3-[3-({Bis[(3-{2-carboxy-2-fluoro-2-[(3S)-pyrrolidin-3-yl]ethyl}phenyl)methyl]amino}methyl)phenyl]-2-fluoro-2-[(3S)-pyrrolidin-3-yl]propanoic acid], the IC50 is 1.4 nM.

Consider `O=C(O)[C@@H](Cc1cccc(CN(CCNc2cccc(C[C@H](C(=O)O)[C@H]3CCNC3)c2)Cc2cccc(C[C@H](C(=O)O)[C@H]3CCNC3)c2)c1)[C@H]1CCNC1` [Compound 7, (2S)-3-[3-({[2-({3-[(2S)-2-Carboxy-2-[(3R)-pyrrolidin-3-yl]ethyl]phenyl}amino)ethyl]({3-[(2S)-2-carboxy-2-[(3R)-pyrrolidin-3-yl]ethyl]phenyl}methyl)amino}methyl)phenyl]-2-[(3R)-pyrrolidin-3-yl]propanoic acid pentahydrochloride], for which the IC50 stood at 0.76 nM.

Molecule `O=C(O)[C@@H](Cc1cccc(CN(CCN(Cc2cccc(C[C@H](C(=O)O)[C@H]3CCNC3)c2)Cc2cccc(C[C@H](C(=O)O)[C@H]3CCNC3)c2)Cc2cccc(C[C@H](C(=O)O)[C@H]3CCNC3)c2)c1)[C@H]1CCNC1` [Compound 4, (2S)-3-{3-[({2-[Bis({3-[(2S)-2-carboxy-2-[(3R)-pyrrolidin-3-yl]ethyl]phenyl}methyl)amino]ethyl}({3-[(2S)-2-carboxy-2-[(3R)-pyrrolidin-3-yl]ethyl]phenyl}methyl)amino)methyl]phenyl}-2-[(3R)-pyrrolidin-3-yl]propanoic acid] yielded an IC50 of 0.85 nM.

A word on the IC50: it is the concentration that gives 50% inhibition. A lower IC50 goes with higher potency.

For the origin of these results see patent US20250042847A1, “SUBSTITUTED PHENYLPROPIONIC ACID DERIVATIVE AND USE THEREOF” (TUOJIE BIOTECH (SHANGHAI) CO., LTD., priority 2021, published 2025).
